In US20260091051A1, “USE OF NMN FOR THE PREVENTION AND/OR TREATMENT OF PAIN, AND CORRESPONDING COMPOSITIONS” (Nuvamid SA, priority 2019, published 2026):
Where two headings read alike, the source gives them in different places.

What was measured:
[1] = tested on: cyclophosphamide-induced cystitis (visceral nociceptive pain) in female Sprague-Dawley rats; assay: Visceral pain model of cyclophosphamide-induced cystitis in rats, von Frey filaments (Example 1); type: in vivo, rat; conditions: for nociceptive threshold (threshold of tolerance to pain, allodynia): CYP-treated rats; for nociceptive threshold (threshold of tolerance to pain, allodynia) / nociceptive score: NMN 500 mg/kg or ibuprofen 300 mg/kg oral
Procedure: The effectiveness of the use of NMN according to the invention was evaluated in rats in a model of nociceptive pain. More precisely, the model used is a visceral pain model. The administration of cyclophosphamide (CYP) serves as the means to simulate cystitis in rats.
The positive control is ibuprofen, a non-steroidal anti-inflammatory drug frequently prescribed to relieve nociceptive pain. The negative control is the carrier for NMN and ibuprofen, that is to say, distilled water.
For this study, 7-week-old female Sprague-Dawley rats were divided into three groups, each group comprising of 6 rats: • a control group who received 5 ml of distilled water (carrier); • a group treated with NMN at 500 mg/kg; and • a group treated with ibuprofen at 300 mg/kg.
The NMN is in the form of zwitterion.
After 24 hours of adaptation, a test to measure the threshold of pain tolerance of each animal was carried out with von Frey filaments prior to the start of the study. This measurement prior to any exposure to a painful stimulus makes it possible to obtain the baseline pain tolerance threshold level in the animals and serves as a negative control.
Von Frey filaments are used as a device for measuring the sensitivity of the skin to touch. The use of von Frey filaments makes it possible to test for allodynia and hyperalgesia in rodents. Briefly put, each filament corresponds to a given force. The filaments are applied in ascending order of increasing force to the animal's skin. The rodents in effect have a reflex to withdraw when an unexpected contact occurs. The withdrawal in response to a force exerted on the rodent is indicative of the animal's threshold of tolerance to pain. The use of von Frey filaments is commonly implemented for measurement of pain in rodents (Deuis J R, Dvorakova L S and Vetter I (2017) Methods Used to Evaluate Pain Behaviors in Rodents. Front. Mol. Neurosci. 10:284.).
In the present study, eight filaments in ascending order of increasing force, of 1 g, 2 g, 4 g, 6 g, 8 g, 10 g, 15 g, and 26 g, were used and applied three times each to the animal's abdomen, near the bladder. The animal's response was assessed as follows: • score 0: no response • score 1: retraction of the abdomen • score 2: stamping or changing of position of the animal • score 3: twitching, or curving or rounding of the abdomen, or licking of the area stimulated by the von Frey filament.
For each rat, the results are expressed as follows: • nociceptive threshold: first force level at which a response from the animal is observed (response score greater than or equal to 1). This indicates the lowest threshold of tolerance to pain for measuring allodynia; • nociceptive score: percentage of the maximum response for each filament. This indicates the overall pain response.
The animals of each of the groups receive either the carrier, or NMN at 500 mg/kg, or ibuprofen at 300 mg/kg administered via the oral route. After administration of the compounds to be tested (carrier, NMN, or ibuprofen), cyclophosphamide is injected via the intraperitoneal route into each rat. The cyclophosphamide induces strong inflammation in the bladder and simulates a pain induced by a urinary tract infection such as cystitis.
The test with the von Frey filaments is repeated at 2 hr and then subsequently at 4 hr after injection of the cyclophosphamide in order to measure the pain response of the animals.
The results were analysed by a one-way analysis of variance (ie one-way ANOVA) test supplemented by a Dunnett's test or by a two-way ANOVA analysis. With regard to statistical significance, * signifies that p<0.05, ** signifies that p<0.01, and *** signifies that p<0.001, as compared to the group treated with the carrier.

[2] = tested on: acute cystitis induced by cyclophosphamide (CYP) in female Sprague-Dawley rats; conditions: for nociceptive scores (CYP-induced visceral pain) / nociceptive threshold (CYP-induced allodynia): 500 mg/kg p.o., 15 min before CYP 150 mg/kg i.p.; for nociceptive scores (CYP-induced visceral pain): vs carrier; for visceral pain induced by the CYP (conclusion): single oral treatment 500 mg/kg
Procedure: Animals: Sprague-Dawley female rats, 7 weeks old as of their birth
Acute Cystitis Induced by CYP: The CYP was injected via intraperitoneal injection at 150 mg/kg in a final volume of 5 ml/kg of saline solution.
The rats were placed in individual Plexiglas boxes with a metal wire mesh floor and allowed to adapt to the chamber for a period of at least 30 minutes prior to the commencement of any testing. Eight von Frey filaments with increasing levels of force viz 1, 2, 4, 6, 8, 10, 15, and 26 g were used. Each calibrated filament was applied 3 times to the lower abdominal area, near the bladder.
• Score 0=no response • Score 1=retraction of the abdomen • Score 2=stamping or changing of position • Score 3=wheezing or squealing, or abdominal curvature, or licking of the site stimulated with von Frey filaments
For each rat, the results were expressed as follows: • Nociceptive threshold: first von Frey force level for which the stimulus is perceived as being painful (the score ≥1 is obtained)=>lowered threshold=allodynia • Nociceptive score: % of the maximum response (total=9 for 3 combined applications) for each filament=>Overall response to pain
Experimental Groups (6 Rats Per Group): • Group 1: Carrier (5 ml/kg)+CYP • Group 2: NMN (500 mg/kg)+CYP • Group 3: Compound A (500 mg/kg)+CYP • Group 4: Compound B (500 mg/kg)+CYP

[3] = T=2 h after CYP injection, vs carrier (FIG. 3B)
[4] = T=4 h after CYP injection, vs carrier (FIG. 3C)

Compound	nociceptive threshold (threshold of tolerance to pain, allodynia) ([1]; T0, vs carrier (FIG. 3A))	nociceptive threshold (threshold of tolerance to pain, allodynia) [1, 3]	nociceptive threshold (threshold of tolerance to pain, allodynia) [1, 4]	nociceptive score ([1]; 2 hours after CYP (FIG. 4B))	nociceptive score ([1]; 4 hours after CYP (FIG. 4C))	nociceptive scores (CYP-induced visceral pain) ([2]; +2 hr)	nociceptive threshold (CYP-induced allodynia) ([2]; +2 hr, vs carrier (FIG. 6A))	nociceptive scores (CYP-induced visceral pain) ([2]; +4 hr)	nociceptive threshold (CYP-induced allodynia) ([2]; +4 hr, vs carrier (FIG. 6B))	visceral pain induced by the CYP (conclusion) ([2]; +2 hr)	visceral pain induced by the CYP (conclusion) ([2]; +4 hr)	nociceptive threshold after CYP vs baseline response ([2]; CYP 150 mg/kg i.p., carrier-treated group, 2 hours and 4 hours post injection (FIG. 2A))	nociceptive scores after CYP vs baseline response ([2]; CYP 150 mg/kg i.p., carrier-treated group, 2 hours and 4 hours post injection (FIG. 2B))	pain tolerance threshold (nociceptive threshold) after cyclophosphamide ([1]; carrier-treated rats, intraperitoneal cyclophosphamide, 10 g before administration (FIG. 1B)) [g]
CC(C)Cc1ccc(C(C)C(=O)O)cc1 (stereo not shown) [ibuprofen]	significantly increase the threshold of tolerance to pain	significantly increase the threshold of tolerance to pain	significantly increase the threshold of tolerance to pain	reducing the nociceptive score	reducing the nociceptive score	–	–	–	–	–	–	–	–	–
di-NMN [Compound B]	–	–	–	–	–	no effect was observed	no effect	significant decrease in the nociceptive scores	significant increase in the nociceptive threshold	no beneficial effect	significant anti-nociceptive activity	–	–	–
O=P1(N(CCCl)CCCl)NCCCO1 (stereo not shown) [cyclophosphamide, reference compound]	–	–	–	–	–	–	–	–	–	–	–	significant decrease in the nociceptive threshold	significant increase in the nociceptive scores	3
NC(=O)c1ccc[n+]([C@@H]2O[C@H](COP(=O)([O-])O)[C@@H](O)[C@H]2O)c1 [NMN, nicotinamide mononucleotide]	increase the response threshold to nociceptive pain significantly	increase the response threshold to nociceptive pain significantly	increase the response threshold to nociceptive pain significantly	reducing the nociceptive score	reducing the nociceptive score	significant decrease in the nociceptive scores	slight increase in the nociceptive threshold	significant decrease in the nociceptive scores	slight increase in the nociceptive threshold	relieved the visceral pain	relieved the visceral pain	–	–	–
NC(=O)c1ccc[n+]([C@H]2O[C@H](COP(=O)([O-])O)[C@@H](O)[C@H]2O)c1 [Compound A, alpha nicotinamide mononucleotide]	–	–	–	–	–	decrease in the nociceptive scores	increase in the nociceptive threshold	only achieved the level of statistical significance at +4 h	significant at +4 hr	reduced the visceral pain	only achieving the level of significance at +4 hr	–	–	–
